# US9328106B2, “Cyclic ether pyrazol-4-yl-heterocyclyl-carboxamide compounds and methods of use” (Genentech, Inc., priority 2012, dated 2016)
# Molecular target: PIM1 (Homo sapiens (Human), UniProt P11309)
# Assay: biochemical
# Type: biochemical
# Conditions: 20 pM PIM1, 1 μM FAM-peptide, 10 μM ATP, 90 minutes at room temperature; read-out: PIM1 LC3K (KI)
# Chain of PIM1 (P11309 whole entry): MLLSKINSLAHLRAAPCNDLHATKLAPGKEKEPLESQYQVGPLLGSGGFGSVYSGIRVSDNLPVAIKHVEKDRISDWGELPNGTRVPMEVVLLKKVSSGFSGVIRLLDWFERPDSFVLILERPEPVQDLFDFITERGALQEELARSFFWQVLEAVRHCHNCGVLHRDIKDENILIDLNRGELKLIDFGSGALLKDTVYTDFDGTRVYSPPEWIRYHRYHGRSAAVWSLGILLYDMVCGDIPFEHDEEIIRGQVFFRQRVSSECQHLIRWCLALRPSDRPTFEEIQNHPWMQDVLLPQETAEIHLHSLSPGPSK
row,Compound,Ki [nM]
1,"Cn1ncc(NC(=O)c2nc(-c3c(F)cccc3F)sc2N)c1[C@@H]1CC(F)[C@H](N)CCO1 (stereo partly drawn) [Example 150, 5-Amino-N-[5-[(2S,5R)-5-amino-4-fluoro-oxepan-2-yl]-1-methyl-pyrazol-4-yl]-2-(2,6-difluorophenyl)thiazole-4-carboxamide]",0.105
2,"Cc1noc(C)c1-c1nc(C(=O)Nc2cnn(C)c2[C@@H]2CC[C@@H](N)[C@@H](F)CO2)cs1 [Example 244, N-(5-((2S,5R,6R)-5-amino-6-fluorooxepan-2-yl)-1-methyl-1H-pyrazol-4-yl)-2-(3,5-dimethylisoxazol-4-yl)thiazole-4-carboxamide]",5.98
3,"Cn1ncc(NC(=O)c2ccc(F)c(-c3c(F)cc(C(C)(C)O)cc3F)n2)c1[C@@H]1CC[C@@H](N)[C@H](F)CO1 [Example 200, N-(5-((2S,5R,6S)-5-amino-6-fluorooxepan-2-yl)-1-methyl-1H-pyrazol-4-yl)-6-(2,6-difluoro-4-(2-hydroxypropan-2-yl)phenyl)-5-fluoropicolinamide]",0.011
4,"Cc1ccc(F)c(-c2nc(C(=O)Nc3cnn(C)c3[C@@H]3CC[C@@H](N)[C@@H](F)CO3)c(N)s2)c1 [Example 274, 5-amino-N-(5-((2S,5R,6R)-5-amino-6-fluorooxepan-2-yl)-1-methyl-1H-pyrazol-4-yl)-2-(2-fluoro-5-methylphenyl)thiazole-4-carboxamide]",0.02
5,"Cn1ncc(NC(=O)c2ccc(F)c(-c3c(F)cc(C4(F)COC4)cc3F)n2)c1[C@@H]1CC[C@@H](N)[C@H](F)CO1 [Example 194, N-(5-((2S,5R,6S)-5-amino-6-fluorooxepan-2-yl)-1-methyl-1H-pyrazol-4-yl)-6-(2,6-difluoro-4-(3-fluorooxetan-3-yl)phenyl)-5-fluoropicolinamide]",0.022
6,"Cn1ncc(NC(=O)c2csc(-c3cccc(F)c3F)n2)c1[C@@H]1CC[C@@H](N)[C@@H](F)CO1 [Example 245, N-(5-((2S,5R,6R)-5-amino-6-fluorooxepan-2-yl)-1-methyl-1H-pyrazol-4-yl)-2-(2,3-difluorophenyl)thiazole-4-carboxamide]",0.104
7,"Cn1ncc(NC(=O)c2nc(-c3c(F)cccc3C(F)(F)F)sc2N)c1[C@@H]1CC[C@@H](N)[C@H](F)CO1 [Example 331, 5-amino-N-(5-((2S,5R,6S)-5-amino-6-fluorooxepan-2-yl)-1-methyl-1H-pyrazol-4-yl)-2-(2-fluoro-6-(trifluoromethyl)phenyl)thiazole-4-carboxamide]",0.104
8,"C[C@@H]1O[C@H](c2c(NC(=O)c3nc(-c4c(F)cccc4F)sc3N)cnn2C)CC(F)(F)[C@]1(C)N [Example 185, 5-Amino-N-(5-((2S,5R,6S)-5-amino-4,4-difluoro-5,6-dimethyltetrahydro-2H-pyran-2-yl)-1-methyl-1H-pyrazol-4-yl)-2-(2,6-difluorophenyl)thiazole-4-carboxamide]",4.35
9,"CO[C@H]1COC(c2c(NC(=O)c3nc(-c4c(F)cccc4F)sc3N)cnn2C)CC[C@@H]1N (stereo partly drawn) [Example 128, 5-amino-N-(5-((5S,6R)-5-amino-6-methoxyoxepan-2-yl)-1-methyl-1H-pyrazol-4-yl)-2-(2,6-difluorophenyl)thiazole-4-carboxamide]",0.476
10,"Cc1nn(C)cc1-c1nc(C(=O)Nc2cnn(C)c2[C@@H]2CC[C@@H](N)[C@H](F)CO2)cs1 [Example 241, N-(5-((2S,5R,6S)-5-amino-6-fluorooxepan-2-yl)-1-methyl-1H-pyrazol-4-yl)-2-(1,3-dimethyl-1H-pyrazol-4-yl)thiazole-4-carboxamide]",0.283
11,"COc1ncccc1-c1nc(C(=O)Nc2cnn(C)c2[C@@H]2CC[C@@H](N)[C@H](F)CO2)cs1 [Example 232, N-(5-((2S,5R,6S)-5-amino-6-fluorooxepan-2-yl)-1-methyl-1H-pyrazol-4-yl)-2-(2-methoxypyridin-3-yl)thiazole-4-carboxamide]",1.11
12,"Cn1ncc(NC(=O)c2nc(-c3c(F)cccc3F)sc2N)c1C1C[C@@H](N)[C@H](F)CCO1 (stereo partly drawn) [Example 127, 5-amino-N-(5-((4R,5R)-4-amino-5-fluorooxepan-2-yl)-1-methyl-1H-pyrazol-4-yl)-2-(2,6-difluorophenyl)thiazole-4-carboxamide]",0.112
13,"Cn1ncc(NC(=O)c2csc(-c3cccc(Cl)c3F)n2)c1[C@@H]1CC[C@@H](N)[C@H](F)CO1 [Example 308, N-(5-((2S,5R,6S)-5-amino-6-fluorooxepan-2-yl)-1-methyl-1H-pyrazol-4-yl)-2-(3-chloro-2-fluorophenyl)thiazole-4-carboxamide]",0.054
14,"Cn1ncc(NC(=O)c2nc(-c3c(F)ccc(F)c3F)sc2N)c1[C@@H]1CC[C@@H](N)[C@H](F)CO1 [Example 332, 5-amino-N-(5-((2S,5R,6S)-5-amino-6-fluorooxepan-2-yl)-1-methyl-1H-pyrazol-4-yl)-2-(2,3,6-trifluorophenyl)thiazole-4-carboxamide]",0.003
15,"Cn1ncc(NC(=O)c2csc(-c3c(F)cccc3F)n2)c1[C@@H]1CC[C@@H](N)[C@@H](O)CO1 [Example 350, N-(5-((2S,5R,6R)-5-amino-6-hydroxyoxepan-2-yl)-1-methyl-1H-pyrazol-4-yl)-2-(2,6-difluorophenyl)thiazole-4-carboxamide]",> 667
16,"Cn1ncc(NC(=O)c2nc(-c3c(F)cccc3F)sc2N)c1[C@H]1C[C@H](F)[C@@H](N)CCO1 [Example 137, 5-amino-N-(5-((2R,4S,5S)-5-amino-4-fluorooxepan-2-yl)-1-methyl-1H-pyrazol-4-yl)-2-(2,6-difluorophenyl)thiazole-4-carboxamide]",0.099
17,"COCCOc1cc(F)c(-c2nc(C(=O)Nc3cnn(C)c3[C@@H]3CC[C@@H](N)[C@H](O)CO3)ccc2F)c(F)c1 [Example 191, N-(5-((2S,5R,6S)-5-Amino-6-hydroxyoxepan-2-yl)-1-methyl-1H-pyrazol-4-yl)-6-(2,6-difluoro-4-(2-methoxyethoxy)phenyl)-5-fluoropicolinamide]",0.056
18,"Cn1ncc(NC(=O)c2nc(-c3ccncc3F)sc2N)c1[C@@]12CC[C@@H](N)[C@@H](CC1)O2 (stereo in doubt) [Example 161, 5-Amino-N-[5-[2-amino-8-oxabicyclo[3.2.1]octan-5-yl]-1-methyl-pyrazol-4-yl]-2-(3-fluoro-4-pyridyl)thiazole-4-carboxamide]",0.013
19,"Cn1ncc(NC(=O)c2csc(-c3cnn(CC(C)(C)O)c3)n2)c1[C@@H]1CC[C@@H](N)[C@H](F)CO1 [Example 228, N-(5-((2S,5R,6S)-5-amino-6-fluorooxepan-2-yl)-1-methyl-1H-pyrazol-4-yl)-2-(1-(2-hydroxy-2-methylpropyl)-1H-pyrazol-4-yl)thiazole-4-carboxamide]",0.124
20,"Cn1ncc(NC(=O)c2nc(-c3c(F)cccc3F)sc2N)c1[C@H]1C[C@@H](N)CCO1 [Example 159, 5-Amino-N-[5-[(2R,4S)-4-aminotetrahydropyran-2-yl]-1-methyl-pyrazol-4-yl]-2-(2,6-difluorophenyl)thiazole-4-carboxamide]",0.019
21,"Cn1ncc(NC(=O)c2nc(C3CCCC3)sc2N)c1[C@@H]1CC[C@@H](N)[C@H](F)CO1 [Example 334, 5-amino-N-(5-((2S,5R,6S)-5-amino-6-fluorooxepan-2-yl)-1-methyl-1H-pyrazol-4-yl)-2-cyclopentylthiazole-4-carboxamide]",0.453
22,Cn1ncc(NC(=O)c2csc(-c3c(F)cc(O[C@@H]4CCOC4)cc3F)n2)c1[C@@H]1CC[C@@H](N)[C@H](F)CO1 [Example 217],0.003
